Assay results from patent US7666835B2 (Imperial Innovations Limited, priority 2001, dated 2010).
No end group written: not given here.

Legend:
GLP-1 receptor [1] = biological target: T1, GLP-1 receptor (Rattus norvegicus, UniProt P32301); assay: ICV coadministration of exendin-(9-39) with GLP-1 or OXM, food intake (study 4a); format: in vivo; conditions: 1 h food intake
T1 construct: from tissue; host or cells: rat hypothalamus (membrane preparation)
T1 sequence (P32301 22-463): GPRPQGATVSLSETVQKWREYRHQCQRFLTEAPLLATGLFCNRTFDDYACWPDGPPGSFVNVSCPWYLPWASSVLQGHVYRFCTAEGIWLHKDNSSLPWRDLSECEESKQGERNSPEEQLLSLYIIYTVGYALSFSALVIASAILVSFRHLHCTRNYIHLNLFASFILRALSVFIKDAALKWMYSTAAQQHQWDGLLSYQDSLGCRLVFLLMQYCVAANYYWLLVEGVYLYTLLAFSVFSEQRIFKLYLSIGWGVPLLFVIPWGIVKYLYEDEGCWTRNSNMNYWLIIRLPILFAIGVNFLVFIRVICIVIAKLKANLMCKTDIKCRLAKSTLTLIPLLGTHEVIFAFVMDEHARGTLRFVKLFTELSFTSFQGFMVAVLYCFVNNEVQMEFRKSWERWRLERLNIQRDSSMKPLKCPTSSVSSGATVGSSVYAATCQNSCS
Protocol: (§1) Animals had permanent stainless steel guide cannulas (Plastics One, Roanoke, Va.) stereotactically implanted ICV or iPVN. All studies were carried out in the early light phase, between 0900-1100 h, after a 24-h fast, and food intake was measured 1, 2, 4, 8, and 24 h postinjection.

GLP-1 receptor [2] = biological target: T1, GLP-1 receptor; assay: iPVN coinjection of exendin-(9-39) with GLP-1 or OXM, food intake (study 4b); format: in vivo
Protocol: as §1

[3] = biological target: T2, arcuate nucleus GLP-1 receptors (Rattus norvegicus, UniProt P32301); assay: iARC exendin 9-39 prior to IP OXM or GLP-1, 1 hour food intake; format: in vivo
T2 construct: 24-hour fasted rats received an iARC injection of saline or exendin9-39 (5 nmoles); from tissue; host or cells: living rat, hypothalamic arcuate nucleus
T2 sequence (P32301 22-463): T1 sequence (P32301 22-463)
Description: Rats cannulated into the arcuate nucleus were randomised into 6 groups (n=10-12 per group). […] The injection details are described in Table 1 below.

[4] = ICV injection, food intake in 24-h fasted rats (studies 1a, 2a); format: in vivo, rat; conditions: study 1a, 3 nmol ICV; for refeeding (food intake) after ICV injection: 24-h fasted rats, vs saline
Description: (§2) Animals had permanent stainless steel guide cannulas (Plastics One, Roanoke, Va.) stereotactically implanted ICV or iPVN.

[5] = iPVN injection, food intake in 24-h fasted rats (studies 1b, 2b); format: in vivo, rat; conditions: for refeeding (food intake) after iPVN injection: study 1b, OXM, GLP-1 (3 nmol [sic]), exendin-4 0.03 nmol, glicentin, glucagon 1 nmol, SP-1 3 nmol, fasted rats
Protocol: as §2
Therefore, exendin-4 was injected iPVN at a dose of 0.03 nmol.

[6] = ICV injection in sated rats at onset of dark phase: food intake and behaviour (study 3); format: in vivo, rat; conditions: study 3a, 3 nmol ICV, early dark phase, vs saline
Protocol: Food intake was measured 1 h postinjection (study 3a), and behaviour was assessed (study 3b).

[7] = system: fos-like immunoreactivity; assay: fos-like immunoreactivity (FLI) in hypothalamus and brainstem after IP injection; format: in vivo, rat; conditions: IP OXM 50 nmol/kg or CCK 15 nmol/kg; 90 minutes after injection
Description: The brains were removed and post-fixed overnight in PBF and then transferred to PB-sucrose (20% w/v) overnight. 40 μm coronal sections of brain and brainstem were cut on a freezing microtome and stained for fos-like immunoreactivity (FLI) by the avitin-biotin-peroxidase method. The sections were then mounted on poly-L-lysine-coated slides, dehydrated in increasing concentrations of ethanol (50-100%), delipidated in xylene and coverslipped using DPX mountant. Slides were examined for FLI-positive nuclei using a light microscope (Nikon Eclipse E-800) and images captured using a microimager (Xillix MicroImager). The numbers of FLI-positive nuclei in the hypothalamus and brainstem were counted by an independent member of the research team who was blinded to the experimental groups. The average number of FLI-positive nuclei per section was calculated and expressed as an integer for each animal.

## exendin-(9-39)
GLP-1 receptor [1]; exendin-(9-39) 30 nmol with GLP-1 3 nmol (10:1)
  effect of coadministered exendin-(9-39) on anorectic effect of GLP-1: blocked the anorectic effects of GLP-1
GLP-1 receptor [1]; exendin-(9-39) 30 nmol with OXM 3 nmol
  effect of coadministered exendin-(9-39) on anorectic effect of OXM: attenuation of the anorectic effect of OXM
GLP-1 receptor [2]; exendin-(9-39) 10 nmol with GLP-1 1 nmol
  effect of coinjected exendin-(9-39) on anorectic effect of GLP-1: blocked
GLP-1 receptor [2]; exendin-(9-39) 10 nmol with OXM 1 nmol
  effect of coinjected exendin-(9-39) on anorectic effect of OXM: blocked
[3]; 1 hour, iARC injection / IP injection 15 minutes later, exendin 9-39 5 nmoles, OXM or GLP-1 30 nmol/kg, Saline/saline 9.2
  Food intake: 9.0 g
[3]; GLP-1 30 nmol/kg IP
  effect of prior iARC exendin 9-39 on inhibition of food intake by IP GLP-1: not affected
[3]; exendin 9-39 (300 nmol/kg as printed) into the ARC, OXM 30 nmol/kg IP
  effect of prior iARC exendin 9-39 on anorexia caused by IP OXM: blocked

## CC[C@H](C)[C@H](NC(=O)[C@H](Cc1ccccc1)NC(=O)[C@H](CCC(=O)O)NC(=O)[C@H](CCCCN)NC(=O)[C@H](C)NC(=O)[C@H](C)NC(=O)[C@H](CCC(N)=O)NC(=O)CNC(=O)[C@H](CCC(=O)O)NC(=O)[C@H](CC(C)C)NC(=O)[C@H](Cc1ccc(O)cc1)NC(=O)[C@H](CO)NC(=O)[C@H](CO)NC(=O)[C@@H](NC(=O)[C@H](CC(=O)O)NC(=O)[C@H](CO)NC(=O)[C@@H](NC(=O)[C@H](Cc1ccccc1)NC(=O)[C@@H](NC(=O)CNC(=O)[C@H](CCC(=O)O)NC(=O)[C@H](C)NC(=O)[C@@H](N)Cc1c[nH]cn1)[C@@H](C)O)[C@@H](C)O)C(C)C)C(=O)N[C@@H](C)C(=O)N[C@@H](Cc1c[nH]c2ccccc12)C(=O)N[C@@H](CC(C)C)C(=O)N[C@H](C(=O)N[C@@H](CCCCN)C(=O)NCC(=O)N[C@@H](CCCNC(=N)N)C(N)=O)C(C)C [GLP-1, glucagon-like peptide-1]
[4]
  refeeding (food intake) after ICV injection: significantly reduced refeeding
[4]; fasted rats
  duration of inhibition of food intake postinjection: 4 h
[5]
  refeeding (food intake) after iPVN injection: inhibited refeeding
[5]; study 2b, 1 nmol iPVN, until 8 h postinjection
  food intake after iPVN injection: significantly reduced
[6]
  food intake 1 h postinjection: significantly reduced food intake

## glucagon
[4]
  refeeding (food intake) after ICV injection: failed to affect food intake at any time point
[5]
  refeeding (food intake) after iPVN injection: failed to affect food intake at any time point

## exendin-4
[5]
  refeeding (food intake) after iPVN injection: inhibited refeeding

## CCK-8 (DYMGWMDF; ends and bridges not checked; UniProt P06307 96-103, looked up) [positive control for gastric emptying and brainstem FLI]
[7]
  FLI / c-fos expression in the brainstem (NTS, area postrema): dense staining of FLI
